In patent US20260103474A1, “NOVEL COMPOUNDS FOR THE DIAGNOSIS OF TDP-43 PROTEINOPATHIES” (AC IMMUNE SA, priority 2022, published 2026):

Key:
TDP-43 aggregates = TDP-43 aggregates (Homo sapiens, UniProt Q13148); test: Micro-autoradiography staining in brain sections from patients with FTD; format: binding; design: from tissue; host or cells: frozen post-mortem human brain sections (FTLD-TDP type A and type B; non-demented controls in the classical autoradiography); conditions: 120 nM
Method: All tissues were collected from donors for or from whom a written informed consent for a brain autopsy and the use of the material and clinical information for research purposes had been obtained by the respective brain banks. All samples were anonymized and coded. Frozen brain tissue blocks with confirmed TDP-43 pathology upon autopsy were processed using a cryotome to generate sections of 10 μm in thickness and mounted on glass slides. Sections were kept at −80° C. until use.
Brain sections were immunostained using a commercially available antibody, specific for phosphorylated serine at amino acid 409/410 (anti-pTDP-43 pS409/410, Biolegend, 829901). Sections were fixed for 15 minutes at 4° C. with 4% formaldehyde (Sigma, 252549) and washed three times for height minutes with 1×PBS (Dulbecco's phosphate buffered saline, Sigma D1408) at room temperature. Next, sections were saturated and permeabilized in blocking buffer (PBS, 10% normal goat serum (NGS), 0.25% Triton X-100) for one hour at room temperature and incubated overnight at 4° C. with primary antibody against pTDP-43 (diluted at 1/500 in PBS, 5% NGS, 0.25% Triton X-100). The following day, sections were washed three times for height minutes with 1×PBS before incubation with a secondary, AlexaFluor633-labeled goat-anti-rat antibody (Invitrogen, A-21094, diluted at 1/500 in PBS) for 45 minutes at room temperature. Following incubation with […] antibodies the sections were washed three times in PBS before being processed further.
For micro-autoradiography, tritiated test compound ([^3H]-Compound 1, [^3H]-Compound 9 or [^3H]-Compound 17 respectively) was incubated on the sections at 120 nM in 50 mM Tris buffer pH 7.4 for 45 minutes at room temperature. Sections were then washed as follows: once in ice-cold 50 mM Tris-HCl pH 7.4 buffer for one minute, twice in ice-cold 70% ethanol for one minute, once in ice-cold 50 mM Tris-HCl pH 7.4 buffer for one minute and finally rinsed briefly in ice-cold distilled water. Sections were subsequently dried for one hour under a stream of air and then exposed to Ilford Nuclear Emulsion Type K5 (Agar Scientific, AGP9281) for ten days at 4° C. in a light-proof slide storage box. The sections were developed by immersing them successively in the following solutions: 1.) Ilford Phenisol Developer (1:5 dilution in H2O, Agar Scientific, AGP9106) for four minutes, 2.) Ilfostop solution (1:20 dilution in H2O, Agar Scientific, AGP9104) for two minutes, 3.) Ilford Hypam Fixer (1:5 dilution in H2O, Agar Scientific, AGP9183) for four minutes and finally rinsed with H2O for 10 minutes.
For image acquisition, sections were mounted using ProLong Gold Antifade reagent (Invitrogen P36930) and imaged on a Panoramic250 Slide Scanner (3DHistech) with a 40× objective capturing brightfield and fluorescent images separately or on a Panoramic Scan II (3DHistech) with a 20× objective. The Visiopharm image analysis software suite was used to align the fluorescent image with the brightfield image.

[1] = target: human FTD Type A sarkosyl-insoluble brain extracts (Homo sapiens, UniProt Q13148); test: Kd determination by micro-radiobinding assay on FTD Type A extracts; format: binding; conditions: tritiated compound 1.29 to 300 nM
Method: Human brain extracts were prepared as described in Laferriere et al., 2019, Nature Neurosc. A sample of brain tissue (frontal or temporal cortex) was homogenized at 1:4 (w/v) ratio in the homogenization-solubilization (HS) buffer at 4° C. using tissue homogenizer (Precellys) with CKmix homogenization tubes. The following sequence was used for homogenization: 3 cycles of 30 seconds at 5000 rpm (with 15 seconds pause between each cycle). Homogenized samples were aliquoted and stored at −80° C. in 1.5 mL low protein binding tubes.
Brain homogenates were thawed on ice and resuspended in HS buffer to obtain a final concentration of 2% sarkosyl, 1 unit/μL Benzonase and 1 mM MgCl2. The samples were then incubated at 37° C. under constant shaking at 600 rpm on a thermomixer for 45 minutes (min). The supernatants were collected in a new tube (sarkosyl-soluble fraction, S1). The pellet was resuspended in 1000 μL of myelin floatation buffer and centrifuged at 20,000 g for 60 min at 4° C. The supernatant was carefully removed to remove all the floating lipids. This step was repeated if all the lipids could not be removed in a single step. The pellet was subsequently washed with Phosphate-Buffered Saline (PBS) and centrifuged for 30 min at 20,000 g at 4° C. The final pellet was resuspended in 200 μL PBS and stored at −80° C. (sarkosyl-insoluble fraction). The samples were analyzed by immunoblotting in denaturing conditions.
Human FTD sarkosyl-insoluble brain extracts were spotted onto microarray slides. The slides were incubated with [^3H]-Compounds 1, 7, 8, 9, 15, 16 and 17 in a range of concentrations, varying from 1.29 to 300 nM. After incubation, slides were washed and scanned by a real-time autoradiography system (BeaQuant, ai4R). Quantification of the signal was performed by using the Beamage image analysis software (ai4R). Non-specific signal was determined with an excess of non-radiolabeled compound 1, 7, 8, 9, 15, 16 and 17 (1 μM), respectively, and specific binding was calculated by subtracting the non-specific signal from the total signal.
The Kd (Dissociation constant) and R^2 (parameter ranging between 0.0 and 1.0 that quantifies the goodness of fit, and the best curve fit obtained with value of 1.0) were obtained by fitting the specific binding data with non-linear regression analysis, using a one-site specific binding model in GraphPad Prism8.

Sequence of TDP-43 aggregates (Q13148 whole entry): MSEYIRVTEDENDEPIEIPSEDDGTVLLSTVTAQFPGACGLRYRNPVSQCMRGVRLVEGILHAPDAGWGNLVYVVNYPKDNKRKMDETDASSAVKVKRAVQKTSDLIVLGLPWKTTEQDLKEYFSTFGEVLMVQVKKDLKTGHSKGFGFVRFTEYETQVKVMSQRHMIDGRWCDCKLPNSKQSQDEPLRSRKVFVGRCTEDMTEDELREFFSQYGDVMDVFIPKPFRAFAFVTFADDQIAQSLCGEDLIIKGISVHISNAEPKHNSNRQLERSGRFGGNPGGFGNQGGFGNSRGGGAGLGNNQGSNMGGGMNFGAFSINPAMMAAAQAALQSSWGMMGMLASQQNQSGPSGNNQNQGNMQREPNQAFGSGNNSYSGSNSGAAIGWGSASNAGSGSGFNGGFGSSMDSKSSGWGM
Sequence of human FTD Type A sarkosyl-insoluble brain extracts (Q13148 263-414 limits assumed): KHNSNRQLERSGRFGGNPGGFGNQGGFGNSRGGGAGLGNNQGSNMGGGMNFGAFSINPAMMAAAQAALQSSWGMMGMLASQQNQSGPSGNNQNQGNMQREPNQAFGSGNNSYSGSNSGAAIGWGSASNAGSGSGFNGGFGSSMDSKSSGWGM

SMILES | Micro-autoradiography silver grain signal versus pTDP-43 immunostaining (TDP-43 aggregates; FTLD-TDP type A brain sections) | Micro-autoradiography silver grain signal versus pTDP-43 immunostaining (TDP-43 aggregates; FTLD-TDP type B brain sections) | Kd [1] [µM]
[3H]c1cncc(N2CCc3nc(-c4cc([3H])c(N5CC[C@@H](F)C5)nc4F)sc3C2=O)c1 [[^3H]-Compound 1, tritiated 2-[2-fluoro-6-[(3R)-3-fluoropyrrolidin-1-yl]-3-pyridyl]-5-(3-pyridyl)-6,7-dihydrothiazolo[5,4-c]pyridin-4-one] | colocalization with pTDP-43 aggregates | same colocalization was observed | 0.069 ± 0.021
[3H]C([3H])(O)C1CCN(c2ccc(-c3nc4c(s3)C(=O)N(c3cccnc3)CC4)c(F)n2)CC1 [[^3H]-Compound 17, 2-(2-fluoro-6-(4-(hydroxymethyl-t2)piperidin-1-yl)pyridin-3-yl)-5-(pyridin-3-yl)-6,7-dihydrothiazolo[5,4-c]pyridin-4(5H)-one] | colocalization with pTDP-43 aggregates | same colocalization was observed | 0.025 ± 0.006
